For 1 molecule, IC50 and inhibition results are on record in PMC10392749, “PIP5K1C phosphoinositide kinase deficiency distinguishes PIKFYVE-dependent cancer cells from non-malignant cells” (Autophagy, 2023).

One assay deals with T1, PIP4K2C (Homo sapiens, UniProt Q8TBX8).
T1 sequence (Q8TBX8 2-421): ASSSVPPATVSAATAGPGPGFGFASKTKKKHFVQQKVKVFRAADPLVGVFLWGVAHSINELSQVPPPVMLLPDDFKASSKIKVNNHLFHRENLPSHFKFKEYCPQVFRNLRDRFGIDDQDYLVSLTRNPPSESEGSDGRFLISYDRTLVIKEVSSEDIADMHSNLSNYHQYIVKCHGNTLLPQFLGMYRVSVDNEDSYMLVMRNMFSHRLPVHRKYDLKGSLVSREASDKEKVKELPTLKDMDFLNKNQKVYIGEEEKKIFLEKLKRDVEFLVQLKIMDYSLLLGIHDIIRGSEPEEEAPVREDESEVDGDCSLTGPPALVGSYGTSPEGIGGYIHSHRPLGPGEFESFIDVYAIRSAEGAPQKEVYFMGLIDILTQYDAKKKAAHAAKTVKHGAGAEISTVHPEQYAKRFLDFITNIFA
As to the kind of experiment: KiNativ ATP-probe chemoproteomics in A375 cells treated with WX8; in vitro kinase binding assay (Fig. 2F). It counts as biochemical.

A further assay addresses PIKFYVE (Homo sapiens, UniProt Q9Y2I7). The assay is described as above. The assay is classed as cell-based. The note with it: A-375.
Another assay concerns the target T2, CHUK/IKKA (Homo sapiens, UniProt O15111).
T2 sequence (O15111 1-745): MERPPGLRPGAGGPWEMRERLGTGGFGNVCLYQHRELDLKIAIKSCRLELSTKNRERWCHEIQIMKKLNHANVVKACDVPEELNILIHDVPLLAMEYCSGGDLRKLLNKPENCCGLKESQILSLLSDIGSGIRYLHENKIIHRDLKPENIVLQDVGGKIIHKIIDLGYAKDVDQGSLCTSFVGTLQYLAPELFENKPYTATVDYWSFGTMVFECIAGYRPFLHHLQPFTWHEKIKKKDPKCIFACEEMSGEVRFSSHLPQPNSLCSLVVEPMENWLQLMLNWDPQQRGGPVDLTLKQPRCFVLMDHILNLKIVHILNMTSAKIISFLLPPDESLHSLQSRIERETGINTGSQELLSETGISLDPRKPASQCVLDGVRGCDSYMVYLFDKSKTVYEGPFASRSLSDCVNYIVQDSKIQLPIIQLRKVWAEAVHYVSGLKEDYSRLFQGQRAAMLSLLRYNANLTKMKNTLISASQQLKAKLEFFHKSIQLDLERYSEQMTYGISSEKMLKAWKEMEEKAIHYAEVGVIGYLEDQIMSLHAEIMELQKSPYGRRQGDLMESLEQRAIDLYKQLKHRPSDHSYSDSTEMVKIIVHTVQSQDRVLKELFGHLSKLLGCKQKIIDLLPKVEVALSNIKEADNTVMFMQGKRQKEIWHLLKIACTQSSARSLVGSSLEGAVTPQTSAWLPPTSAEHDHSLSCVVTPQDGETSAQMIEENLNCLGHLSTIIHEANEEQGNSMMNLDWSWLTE
Nature of the assay: KiNativ ATP-probe chemoproteomics in A375 cells treated with WX8. The assay is classed as cell-based. The note with it: A-375.

Structures are written as SMILES. pIC50: −log10 of the molar value.

Sequence of PIKFYVE (Q9Y2I7 2-2098): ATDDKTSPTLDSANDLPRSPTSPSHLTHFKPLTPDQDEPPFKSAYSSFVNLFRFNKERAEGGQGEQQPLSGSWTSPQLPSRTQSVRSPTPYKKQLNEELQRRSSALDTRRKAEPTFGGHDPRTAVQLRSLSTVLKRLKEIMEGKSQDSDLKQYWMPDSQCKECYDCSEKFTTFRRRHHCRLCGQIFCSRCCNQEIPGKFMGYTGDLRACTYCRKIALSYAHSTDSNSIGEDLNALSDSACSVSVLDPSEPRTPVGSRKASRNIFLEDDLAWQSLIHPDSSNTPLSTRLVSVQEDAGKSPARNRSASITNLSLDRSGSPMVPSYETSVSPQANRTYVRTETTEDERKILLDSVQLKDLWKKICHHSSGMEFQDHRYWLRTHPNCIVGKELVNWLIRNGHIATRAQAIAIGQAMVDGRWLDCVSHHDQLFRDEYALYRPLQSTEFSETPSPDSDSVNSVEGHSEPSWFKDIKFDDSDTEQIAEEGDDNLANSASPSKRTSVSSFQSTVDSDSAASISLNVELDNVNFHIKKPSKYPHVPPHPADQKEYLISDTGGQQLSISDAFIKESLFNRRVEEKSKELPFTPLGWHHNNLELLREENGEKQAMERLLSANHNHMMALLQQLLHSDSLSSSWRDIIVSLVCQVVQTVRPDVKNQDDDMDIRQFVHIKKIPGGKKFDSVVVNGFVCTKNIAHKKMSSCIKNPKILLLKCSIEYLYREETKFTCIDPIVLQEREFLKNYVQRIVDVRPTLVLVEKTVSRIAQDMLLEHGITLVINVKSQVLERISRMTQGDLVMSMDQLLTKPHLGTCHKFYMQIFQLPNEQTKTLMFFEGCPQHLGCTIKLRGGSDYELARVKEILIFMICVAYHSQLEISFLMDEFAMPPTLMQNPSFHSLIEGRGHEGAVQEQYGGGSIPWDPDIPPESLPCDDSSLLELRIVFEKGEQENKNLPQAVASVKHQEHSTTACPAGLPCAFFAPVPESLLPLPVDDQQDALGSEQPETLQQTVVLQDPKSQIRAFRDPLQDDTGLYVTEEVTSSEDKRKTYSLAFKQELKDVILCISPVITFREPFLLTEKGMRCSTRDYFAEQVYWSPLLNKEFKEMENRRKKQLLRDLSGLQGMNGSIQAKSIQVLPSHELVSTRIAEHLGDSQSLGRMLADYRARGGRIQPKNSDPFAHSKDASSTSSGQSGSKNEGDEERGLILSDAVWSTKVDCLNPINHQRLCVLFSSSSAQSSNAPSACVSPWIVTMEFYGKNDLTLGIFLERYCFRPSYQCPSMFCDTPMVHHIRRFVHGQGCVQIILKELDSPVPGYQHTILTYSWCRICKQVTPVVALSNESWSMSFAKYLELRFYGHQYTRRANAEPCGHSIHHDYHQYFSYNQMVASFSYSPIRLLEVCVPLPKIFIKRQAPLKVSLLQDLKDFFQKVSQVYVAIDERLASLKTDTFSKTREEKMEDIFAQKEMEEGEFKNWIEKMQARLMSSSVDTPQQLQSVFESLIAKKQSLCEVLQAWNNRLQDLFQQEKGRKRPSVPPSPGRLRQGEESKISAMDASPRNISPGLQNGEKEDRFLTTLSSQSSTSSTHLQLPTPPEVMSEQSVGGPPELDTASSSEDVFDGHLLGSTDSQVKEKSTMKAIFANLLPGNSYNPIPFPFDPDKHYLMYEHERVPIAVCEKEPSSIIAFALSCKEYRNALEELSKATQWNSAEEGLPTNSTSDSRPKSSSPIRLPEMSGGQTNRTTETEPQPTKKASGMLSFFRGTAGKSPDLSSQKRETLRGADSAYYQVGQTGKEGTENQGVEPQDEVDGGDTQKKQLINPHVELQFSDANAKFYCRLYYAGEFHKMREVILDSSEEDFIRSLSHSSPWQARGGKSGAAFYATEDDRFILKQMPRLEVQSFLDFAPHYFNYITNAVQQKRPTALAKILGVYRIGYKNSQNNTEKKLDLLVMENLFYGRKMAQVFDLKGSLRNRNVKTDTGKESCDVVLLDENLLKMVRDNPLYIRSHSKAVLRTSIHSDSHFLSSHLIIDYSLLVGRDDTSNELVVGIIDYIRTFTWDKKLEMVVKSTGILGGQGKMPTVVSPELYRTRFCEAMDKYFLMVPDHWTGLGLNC

One may read the pIC50 as the IC50 on a negative log10 scale, so that one unit is a factor of ten. For orientation: inhibition means how much of the control response was suppressed. High values mean a response far below the control, low ones a response near the control. For `C(=NNc1nc(Nc2ccccc2)nc(N2CCOCC2)n1)c1c[nH]c2ccccc12` [WX8, 1H-indole-3-carbaldehyde (4-anilino-6-[4-morpholinyl]-1,3,5-triazin-2-yl)hydrazone], on PIP4K2C, the pIC50 was about 6.00. Also, the inhibition at 1 µM at PIKFYVE is 97%; at CHUK/IKKA, 39%.
